Results published in patent US20230233559A1, “COMBINATION OF ZIDOVUDINE AND FLUOROQUINOLONE ANTIBIOTIC” (HELPERBY THERAPEUTICS LIMITED, priority 2019, published 2023).

Columns and labels:
Type in all cases: cell-based
Conditions in all cases: fluoroquinolone alone
[1] = test system: BAA2469 NDM-1 Escherichia coli; test: Chequerboard MIC, log phase BAA2469
Description: (§1) The chequerboard method used in Example 1 followed the protocols detailed in Antimicrob Chemo (2013) 68, 374-384. Zidovudine and ciprofloxacin were obtained from commercially available sources. The bacteria used were BAA2469 NDM-1 Escherichia coli, BAA2470 NDM-1 Klebsiella pneumoniae, BAA2471 NDM-1 Escherichia coli, BAA2472 NDM-1 Klebsiella pneumoniae, and NCTC13443 NDM-1 Klebsiella pneumoniae. All strains were obtained from a commercial source and log phase growth of the bacteria was carried out using methods known in the art.
(§2) The effects of the combination of the present invention were examined by calculating the fractional inhibitory concentration index (FICI) of each combination, as follows:
(§3) (MIC of drug A, tested in combination)/(MIC of drug A, tested alone)+(MIC of drug B, tested in combination)/(MIC of drug B, tested alone).
(§4) The interaction of the combination was defined as showing synergy if the FICI was ≤0.5, no interaction if the FICI was >0.5 but <4.0 and antagonism if the FICI was >4.0.
(§5) The method and bacterial strains were identical to Example 1. Zidovudine and levofloxacin were obtained from commercially available sources. The effects of the combination of the present invention were examined by calculating the MIC for each drug alone and in combination in the same manner as Example 1.
as §5, with “moxifloxacin” for “levofloxacin”

[2] = test system: BAA2470 NDM-1 Klebsiella pneumoniae; test: Chequerboard MIC, log phase BAA2470
Description: as §1, §2, §3, §4, §5
as §5, with “moxifloxacin” for “levofloxacin”

[3] = test system: BAA2471 NDM-1 Escherichia coli; test: Chequerboard MIC, log phase BAA2471
Description: as §1, §2, §3, §4, §5
as §5, with “moxifloxacin” for “levofloxacin”

[4] = test system: BAA2472 NDM-1 Klebsiella pneumoniae; test: Chequerboard MIC, log phase BAA2472
Description: as §1, §2, §3, §4, §5
as §5, with “moxifloxacin” for “levofloxacin”

[5] = test system: NCTC13443 NDM-1 Klebsiella pneumoniae; test: Chequerboard MIC, log phase NCTC13443
Description: as §1, §2, §3, §4, §5
as §5, with “moxifloxacin” for “levofloxacin”

MIC [1]	MIC [2]	MIC [3]	MIC [4]	MIC [5]	Compound
16 µg/mL	32 µg/mL	128 µg/mL	128 µg/mL	128 µg/mL	COc1c(N2C[C@@H]3CCCN[C@@H]3C2)c(F)cc2c(=O)c(C(=O)O)cn(C3CC3)c12 [Moxifloxacin, 7-[(4aS,7aS)-1,2,3,4,4a,5,7,7a-octahydropyrrolo[3,4-b]pyridin-6-yl]-1-cyclopropyl-6-fluoro-8-methoxy-4-oxoquinoline-3-carboxylic acid]
8 µg/mL	8 µg/mL	32 µg/mL	32 µg/mL	32 µg/mL	C[C@H]1COc2c(N3CCN(C)CC3)c(F)cc3c(=O)c(C(=O)O)cn1c23 [Levofloxacin, (2S)-7-fluoro-2-methyl-6-(4-methylpiperazin-1-yl)-10-oxo-4-oxa-1-azatricyclo[7.3.1.0^5,13]trideca-5(13),6,8,11-tetraene-11-carboxylic acid]
64 µg/mL	8 µg/mL	> 64 µg/mL	64 µg/mL	64 µg/mL	O=C(O)c1cn(C2CC2)c2cc(N3CCNCC3)c(F)cc2c1=O [Ciprofloxacin, 1-cyclopropyl-6-fluoro-1,4-dihydro-4-oxo-7-(1-piperazinyl)-3-quinolinecarboxylic acid]
